Experimental data published in US10238738B2, “Methods of modulating immune system responses” (priority 2014, dated 2019).

Legend:
[1] = biological target: T1, TIFA (Homo sapiens, UniProt Q96CG3); test: Phosphopeptide analysis of FLAG-TIFA by LC-MS/MS; assay type: cell-based; conditions: HBP or mock-treated cells stably expressing FLAG-TIFA; FIG. 19a
T1 construct: expressed in transfected cells; endogenous TIFA knocked down with a 3' UTR shRNA
T1 sequence (Q96CG3 1-184): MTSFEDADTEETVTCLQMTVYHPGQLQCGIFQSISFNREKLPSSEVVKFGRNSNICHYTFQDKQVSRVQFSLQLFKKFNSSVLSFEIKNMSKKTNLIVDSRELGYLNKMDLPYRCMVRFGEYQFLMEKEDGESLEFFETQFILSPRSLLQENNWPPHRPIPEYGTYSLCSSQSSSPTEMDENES
Method: (§1) FLAG-TIFA was immunoprecipitated from Jurkat cells using FLAG M2 agarose beads (Sigma) as described previously (Chen and Gingras, 2007). Briefly, cells were lysed in 50 mM Hepes-KOH pH 8.0, 100 mM KCl, 2 mM EDTA, 0.1% NP40, 10% glycerol. Soluble cell lysates were pre-cleared for 2 hr with mouse IgG agarose (Sigma) and immunoprecipitated overnight at 4° C. Proteins eluted using 0.5 M NH4OH pH 11 (for mass-spectrometry), or 3× FLAG-peptide (Sigma) (immunoblot analysis). TRAF6 was immunoprecipitated from Jurkat cell lysates using rabbit anti-TRAF6 (sc-72201; Santa cruz) conjugated to protein A/G PLUS-agarose (Santa cruz) and eluted in sample buffer. Whole cell lysates or immunoprecipitation eluates were immunoblotted with the following antibodies: M2 anti-FLAG (Sigma), rabbit anti-FLAG (Sigma), mouse anti-TRAF6 (sc-8409; Santa Cruz), rabbit anti-TRAF2 (sc-876), mouse anti-ubiquitin (sc-8017; Santa cruz), mouse anti-beta actin (Sigma). For phosphopeptide analysis, FLAG-TIFA was excised from the gel, subject to in-gel trypic digestion, followed by treatment with cyanogen bromide (Sigma) in 70% TFA and analyzed by LC/MS/MS. Data were analyzed by Scaffold PTM (Proteome).

[2] = test system: primary human macrophages, neutrophils, and immortalized epithelial cells; test: Cytokine production in primary human cells (ELISA); assay type: cell-based
Method: (§2) Relative expression was calculated using the 2^−ΔΔCT method following normalization of target gene abundance to GAPDH. Quantitative measurements of cytokines were performed using ELISA kits form R&D Systems (KC, IL-23, IFN-β) or BD Biosciences (IL-1β, IL-8, IL-6, IL-12p70, TNF-α). Nuclear extracts were prepared from Jurkat T cells and NF-κB subunit binding was determined using the TransAM® Transcription Factor ELISA (Active Motif). Microarray
Whole blood was taken by venipuncture from human volunteers. Peripheral blood mononuclear cells (PBMCs) were isolated using Ficoll-Paque (GE). PBMCs (2×10^6 cells/ml) were incubated for one hour at 37° C. to allow monocytes to adhere. Following removal of non-adherent cells, monocytes were re-suspended and incubated for 7 days in RPMI 1640, 10% FBS, 1% glutamax, 1% penicillin streptomycin, containing 100 ng/ml recombinant human Granulocyte macrophage-colony stimulating factor (GM-CSF) (BioLegend). For infections, cells were detached using accutase (Sigma) and seeded at 2×10^5 cells/well in 48 well plates without antibiotics. Human neutrophils were isolated from citrated whole blood taken from healthy volunteers by venipuncture using Ficoll-Paque (GE) as described previously (McCaw et al., 2003).

[3] = test system: TRAF2; test: FLAG-TIFA immunoprecipitation and immunoblot for TRAF2; assay type: cell-based, human; conditions: HBP treatment; FIG. 16a
Method: as §1

[4] = biological target: T2, TIFA-TRAF6 interaction (Homo sapiens, UniProt Q96CG3); test: FLAG-TIFA immunoprecipitation and immunoblot for TRAF6; assay type: cell-based
T2 construct: expressed in transfected cells; endogenous TIFA knocked down with a 3' UTR shRNA; TRAF6 endogenous
T2 sequence (Q96CG3 1-184): T1 sequence (Q96CG3 1-184)
Method: as §1

[5] = biological target: T1, TIFA; test: Native PAGE analysis of FLAG-TIFA oligomerization; assay type: cell-based; conditions: clear native-PAGE or blue native PAGE; Jurkat cells; FIG. 20
Excerpt: For BlueNative PAGE, cells were lysed in 1% NP-40, 0.1% Triton-X100, 0.1% SDS and soluble lysate separated by gradient PAGE (8-16%) using ExpressPlus System™ (GenScript) as described previously (Kofoed and Vance, 2013). For ClearNative PAGE, cells were lysed in 1% NP-40, 0.1% Trition-X100, 0.1% SDS and soluble lysate separated on 12.5% tris-glycine polyacrylamide gels.

[6] = test system: TIFA expression; test: qRT-PCR of TIFA mRNA levels in Jurkat T cells; assay type: cell-based, human; conditions: dependent on RelA, FIG. 13
Excerpt: FIG. 13. Shown is qRT-PCR analysis of TIFA mRNA levels in Jurkat T cells treated with HBP, flagellin, or TNFα (after knockdown of the NF-κB subunit ReIA, or treated with a scrambled shRNA (shCtrl).
RNA was isolated using an RNeasy kit (Qiagen) per manufacturers' protocol. cDNA was synthesized using the iScript cDNA synthesis kit (Bio-Rad) and treated with TURBO DNase (Life Technologies). cDNA was amplified using SsoAdvanced SYBR Green (Bio-Rad) using a C1000 thermal cycler (Bio-Rad). Target genes were amplified using the following primers: […]
as §2

[7] = biological target: T1, TIFA; test: Confocal microscopy of FLAG-TIFA with TRAF6 or Lamp2; assay type: cell-based
Method: For visualization of FLAG-TIFA and TRAF6, cells were stained overnight at 4° C. with Alexa Fluor-488 conjugated rabbit anti-FLAG (Cell Signaling) and mouse anti-TRAF6 (sc-8409; Santa Cruz), followed by 1 hour with Alexa Fluor-594 conjugated anti mouse (Life Technologies). For visualization of FLAG-TIFA and Lamp2, cells were stained overnight at 4° C. with mouse anti-FLAG (M2; Sigma) and rabbit anti-Lamp2 (ab37024; Abcam), followed by 1 hour with Alexa Fluor-488 conjugated anti-mouse (Life Technologies) and Alexa Fluor-594 conjugated anti-rabbit (Life Technologies). Slides were visualized using an LSM510 (Carl Zeiss) confocal microscope. For analysis, images were processed using ImageJ software

Compound: O=P(O)(O)OC[C@@H](O)[C@H]1OC(OP(=O)(O)O)[C@@H](O)[C@@H](O)[C@@H]1O (stereo partly drawn) [HBP, D-glycerol-D-manno-heptose-1,7-bisphosphate]
- TIFA Thr9 phosphorylation [1]: phosphorylated only after treatment with HBP
- IL-8, IL-6 and TNFα production ([2]; 24 hr, FIG. 8a-c): induced IL-8, IL-6, and TNFα production
- Th17 polarizing cytokines IL-6 and IL-23 ([2]; primary human macrophages): induced significant amounts
- TIFA interaction with TRAF2 [3]: No interaction was observed
- Ubiquitin chains in the TIFA-TRAF6 complex ([4]; Jurkat cells, TIFA immunoprecipitation, FIG. 17a): Ubiquitin chains could be detected
- TIFA-TRAF6 interaction ([4]; cells expressing FLAG-TIFA, endogenous TIFA knocked down, FIG. 16a): completely dependent on HBP
- Time at which TIFA-TRAF6 interaction was apparent ([4]; post treatment, FIG. 16a): 30 min
- TIFA oligomerization [5]: triggered TIFA oligomerization
- Upregulation of TIFA expression [6]: over 5 fold
- TIFA co-localization with TRAF6 ([7]; 293T cells, 3 hr, FIG. 16b): co-localized with TRAF6 in distinct foci
- Formation of TIFA aggregates co-localized with Lamp2 ([7]; 293 cells, 4 hr, FIG. 21): induced the formation of large TIFA aggregates
